The NIST ThermoML archive (doi:10.1021/je049609w)
Values joined by “and” are separate entries in the source; they are usually repeats but may differ in a detail not shown here. Equal entries are not always repeated.

How the values were obtained:
[1] = 101 kPa, Liquid
[2] = refractive index (Na D-line) (dimensionless); details: 101.33 kPa, Liquid
[3] = xn = mol fraction of the nth substance listed; details: 101 kPa, Liquid
[4] = refractive index (Na D-line) (dimensionless); xn = mol fraction of the nth substance listed; details: 101 kPa, Liquid

CCCCO [butan-1-ol]
Details | mass density, 298.15 K [kg/m3] | mass density, 303.15 K [kg/m3] | mass density, 308.15 K [kg/m3] | refractive index, 298.15 K | refractive index, 303.15 K | refractive index, 308.15 K | speed of sound, 298.15 K [m/s] | viscosity, 298.15 K [mPa·s] | viscosity, 303.15 K [mPa·s] | viscosity, 308.15 K [mPa·s]
[1] | 805.8 | 802 | 798 | – | – | – | 1237 | 2.564 | 2.245 | 1.981
[2] | – | – | – | 1.3983 | 1.3955 | 1.3937 | – | – | – | –

C1COCCO1 [1,4-dioxane]
Details | mass density, 298.15 K [kg/m3] | mass density, 303.15 K [kg/m3] | mass density, 308.15 K [kg/m3] | refractive index, 298.15 K | refractive index, 303.15 K | refractive index, 308.15 K | speed of sound, 298.15 K [m/s] | viscosity, 298.15 K | viscosity, 303.15 K | viscosity, 308.15 K [mPa·s]
[1] | 1028.6 | 1022.9 | 1017.2 | – | – | – | 1345 | 1.196 mPa·s and 1.195 mPa·s | 1.102 mPa·s and 1.095 mPa·s | 1.008
[2] | – | – | – | 1.4203 | 1.4164 | 1.4145 | – | – | – | –

CCOC(C)=O [ethyl acetate]
Details | mass density, 298.15 K [kg/m3] | mass density, 303.15 K [kg/m3] | mass density, 308.15 K [kg/m3] | refractive index, 298.15 K | refractive index, 303.15 K | refractive index, 308.15 K | speed of sound, 298.15 K [m/s] | viscosity, 298.15 K [mPa·s] | viscosity, 303.15 K [mPa·s] | viscosity, 308.15 K [mPa·s]
[1] | 894.2 | 887.9 | 881.6 | – | – | – | 1155 | 0.438 | 0.414 | 0.392
[2] | – | – | – | 1.3713 | 1.3673 | 1.3631 | – | – | – | –

ClC=C(Cl)Cl [trichloroethene]
Details | mass density, 298.15 K [kg/m3] | mass density, 303.15 K [kg/m3] | mass density, 308.15 K [kg/m3] | refractive index, 298.15 K | refractive index, 303.15 K | refractive index, 308.15 K | speed of sound, 298.15 K [m/s] | viscosity, 298.15 K [mPa·s] | viscosity, 303.15 K [mPa·s] | viscosity, 308.15 K [mPa·s]
[1] | 1455.4 | 1447 | 1438.5 | – | – | – | 1027 | 0.573 | 0.547 | 0.521
[2] | – | – | – | 1.476 | 1.4729 | 1.4698 | – | – | – | –

CC(=O)N(C)C [N,N-dimethylethanamide]
Details | mass density, 298.15 K [kg/m3] | mass density, 303.15 K [kg/m3] | mass density, 308.15 K [kg/m3] | refractive index, 298.15 K | refractive index, 303.15 K | refractive index, 308.15 K | speed of sound, 298.15 K [m/s] | viscosity, 298.15 K [mPa·s] | viscosity, 303.15 K [mPa·s] | viscosity, 308.15 K [mPa·s]
[1] | 946.8 | 942.1 | 937.5 | – | – | – | 1458 | 1.261 | 1.154 | 1.047
[2] | – | – | – | 1.4363 | 1.4342 | 1.432 | – | – | – | –

OCCCl [1-chloro-2-hydroxyethane]
Details | mass density, 298.15 K [kg/m3] | mass density, 303.15 K [kg/m3] | mass density, 308.15 K [kg/m3] | refractive index, 298.15 K | refractive index, 303.15 K | refractive index, 308.15 K | speed of sound, 298.15 K [m/s] | viscosity, 298.15 K [mPa·s] | viscosity, 303.15 K [mPa·s] | viscosity, 308.15 K [mPa·s]
[1] | 1200.9 | 1192.5 | 1187.1 | – | – | – | 1358 | 3.104 | 2.669 | 2.347
[2] | – | – | – | 1.4411 | 1.438 | 1.4326 | – | – | – | –

CCOC(=O)CC(=O)OCC [diethyl 1,3-propanedioate]
Details | mass density, 298.15 K [kg/m3] | mass density, 303.15 K [kg/m3] | mass density, 308.15 K [kg/m3] | refractive index, 298.15 K | refractive index, 303.15 K | refractive index, 308.15 K | speed of sound, 298.15 K [m/s] | viscosity, 298.15 K [mPa·s] | viscosity, 303.15 K [mPa·s] | viscosity, 308.15 K [mPa·s]
[1] | 1049.6 | 1044.2 | 1038.8 | – | – | – | 1304 | 1.941 | 1.755 | 1.602
[2] | – | – | – | 1.4132 | 1.4108 | 1.4085 | – | – | – | –

Clc1ccccc1Cl [1,2-dichlorobenzene] + C1COCCO1
Details | mass density, 298.15 K [kg/m3] | mass density, 303.15 K [kg/m3] | mass density, 308.15 K [kg/m3] | refractive index, 298.15 K | refractive index, 303.15 K | refractive index, 308.15 K | speed of sound, 298.15 K [m/s] | viscosity, 298.15 K [mPa·s] | viscosity, 303.15 K [mPa·s] | viscosity, 308.15 K [mPa·s]
[3], x2 = 0 | 1300.9 | 1295.4 | 1289.7 | – | – | – | 1280 | 1.324 | 1.214 | 1.105
[3], x2 = 0.1025 | 1278.5 | 1272.9 | 1267.3 | – | – | – | 1287 | 1.311 | 1.203 | 1.095
[3], x2 = 0.203 | 1255.8 | 1250.1 | 1244.5 | – | – | – | 1293 | 1.298 | 1.191 | 1.085
[3], x2 = 0.2983 | 1232.9 | 1227.3 | 1221.6 | – | – | – | 1299 | 1.285 | 1.181 | 1.076
[3], x2 = 0.3965 | 1208.5 | 1202.8 | 1197.1 | – | – | – | 1305 | 1.273 | 1.169 | 1.066
[3], x2 = 0.4955 | 1182.5 | 1176.9 | 1171.2 | – | – | – | 1312 | 1.26 | 1.158 | 1.056
[3], x2 = 0.596 | 1154.9 | 1149.3 | 1143.6 | – | – | – | 1319 | 1.247 | 1.147 | 1.047
[3], x2 = 0.6976 | 1125.6 | 1120 | 1114.3 | – | – | – | 1325 | 1.234 | 1.135 | 1.037
[3], x2 = 0.7992 | 1094.7 | 1089.1 | 1083.4 | – | – | – | 1332 | 1.221 | 1.124 | 1.027
[3], x2 = 0.8971 | 1063.3 | 1057.7 | 1051.9 | – | – | – | 1338 | 1.209 | 1.113 | 1.018
[4], x2 = 0 | – | – | – | 1.5499 | 1.5476 | 1.545 | – | – | – | –
[4], x2 = 0.1025 | – | – | – | 1.5374 | 1.5333 | 1.5325 | – | – | – | –
[4], x2 = 0.203 | – | – | – | 1.5269 | 1.5246 | 1.5224 | – | – | – | –
[4], x2 = 0.2983 | – | – | – | 1.5171 | 1.5148 | 1.5125 | – | – | – | –
[4], x2 = 0.3965 | – | – | – | 1.5048 | 1.5023 | 1.4998 | – | – | – | –
[4], x2 = 0.4955 | – | – | – | 1.4924 | 1.4902 | 1.4879 | – | – | – | –
[4], x2 = 0.596 | – | – | – | 1.4799 | 1.4768 | 1.4738 | – | – | – | –
[4], x2 = 0.6976 | – | – | – | 1.4652 | 1.4628 | 1.4604 | – | – | – | –
[4], x2 = 0.7992 | – | – | – | 1.4513 | 1.4484 | 1.4455 | – | – | – | –
[4], x2 = 0.8971 | – | – | – | 1.4365 | 1.4337 | 1.4308 | – | – | – | –
